According to the supplement of paper PMC10307832:

Assays:
Assay in all cases: relative viability (nuclei count vs DMSO), 5 days (fraction); higher = more cells survive
Carfilzomib + Pemetrexed = compound: CC(C)C[C@H](NC(=O)[C@H](CCc1ccccc1)NC(=O)CN1CCOCC1)C(=O)N[C@@H](Cc1ccccc1)C(=O)N[C@@H](CC(C)C)C(=O)[C@@]1(C)CO1 [Carfilzomib] + Nc1nc2[nH]cc(CCc3ccc(C(=O)N[C@@H](CCC(=O)O)C(=O)O)cc3)c2c(=O)[nH]1 [Pemetrexed] (partner 0.2 µM)
In short: (§1)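 Lung cancer cell lines were pin-tool dosed in 1536-well plates on the day after seeding, with either a lone drug or a fixed anchor-drug dose plus five library-drug doses (not always all listed) in √10 steps. Nuclei were counted on 4× images after 5 days. Relative viability is the ratio of treated-well to vehicle-well nuclei counts, with each value a median of duplicate plates.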

Carfilzomib + Olaparib = compound: CC(C)C[C@H](NC(=O)[C@H](CCc1ccccc1)NC(=O)CN1CCOCC1)C(=O)N[C@@H](Cc1ccccc1)C(=O)N[C@@H](CC(C)C)C(=O)[C@@]1(C)CO1 [Carfilzomib] + O=C(c1cc(Cc2n[nH]c(=O)c3ccccc23)ccc1F)N1CCN(C(=O)C2CC2)CC1 [Olaparib] (partner 8 µM)
In short: as §1

Crizotinib + Phenformin = compound: C[C@@H](Oc1cc(-c2cnn(C3CCNCC3)c2)cnc1N)c1c(Cl)ccc(F)c1Cl [Crizotinib] + N=C(N)NC(=N)NCCc1ccccc1 [Phenformin] (partner 250 µM)
In short: as §1

Olaparib + OSI-027 = compound: O=C(c1cc(Cc2n[nH]c(=O)c3ccccc23)ccc1F)N1CCN(C(=O)C2CC2)CC1 [Olaparib] + COc1cccc2cc(-c3nc([C@H]4CC[C@H](C(=O)O)CC4)n4ncnc(N)c34)[nH]c12 [OSI-027] (partner 0.5 µM)
In short: as §1

NCI-H1734 showed a relative viability (Carfilzomib + Pemetrexed; first compound 0.001 µM) of 0.398, a relative viability (Carfilzomib + Pemetrexed; first compound 0.003162 µM) of 0.436 and a relative viability (Carfilzomib + Pemetrexed; first compound 0.01 µM) of 0.432. It also gave a relative viability (Carfilzomib + Pemetrexed; first compound 0.03162 µM) of 0.366, a relative viability (Carfilzomib + Pemetrexed; first compound 0.1 µM) of 0.19 and a relative viability (Carfilzomib + Olaparib; first compound 0.001 µM) of 0.649. It also gave a relative viability (Carfilzomib + Olaparib; first compound 0.003162 µM) of 0.679, a relative viability (Carfilzomib + Olaparib; first compound 0.01 µM) of 0.666 and a relative viability (Carfilzomib + Olaparib; first compound 0.03162 µM) of 0.547. The relative viability (Carfilzomib + Olaparib; first compound 0.1 µM) was 0.113, the relative viability (Crizotinib + Phenformin; first compound 0.01 µM) was 0.358 and the relative viability (Crizotinib + Phenformin; first compound 0.03162 µM) was 0.368. It also gave a relative viability (Crizotinib + Phenformin; first compound 0.1 µM) of 0.385, a relative viability (Crizotinib + Phenformin; first compound 1 µM) of 0.367 and a relative viability (Olaparib + OSI-027; first compound 0.08 µM) of 0.662. For the same cell line, the relative viability (Olaparib + OSI-027; first compound 0.253 µM) was 0.516, the relative viability (Olaparib + OSI-027; first compound 2.53 µM) was 0.486 and the relative viability (Olaparib + OSI-027; first compound 8 µM) was 0.374.
Cell Line NCI-H1755 has a relative viability (Carfilzomib + Pemetrexed; first compound 0.001 µM) of 0.42, a relative viability (Carfilzomib + Pemetrexed; first compound 0.003162 µM) of 0.497 and a relative viability (Carfilzomib + Pemetrexed; first compound 0.01 µM) of 0.475. It also gave a relative viability (Carfilzomib + Pemetrexed; first compound 0.03162 µM) of 0.37, a relative viability (Carfilzomib + Pemetrexed; first compound 0.1 µM) of 0.311 and a relative viability (Carfilzomib + Olaparib; first compound 0.001 µM) of 0.978. For the same cell line, the relative viability (Carfilzomib + Olaparib; first compound 0.003162 µM) was 0.934, the relative viability (Carfilzomib + Olaparib; first compound 0.01 µM) was 0.875 and the relative viability (Carfilzomib + Olaparib; first compound 0.03162 µM) was 0.609. The relative viability (Carfilzomib + Olaparib; first compound 0.1 µM) was 0.343, the relative viability (Crizotinib + Phenformin; first compound 0.01 µM) was 0.593 and the relative viability (Crizotinib + Phenformin; first compound 0.03162 µM) was 0.681. For the same cell line, the relative viability (Crizotinib + Phenformin; first compound 0.1 µM) was 0.643, the relative viability (Crizotinib + Phenformin; first compound 0.3162 µM) was 0.527 and the relative viability (Crizotinib + Phenformin; first compound 1 µM) was 0.569. The relative viability (Olaparib + OSI-027; first compound 0.08 µM) was 0.803, the relative viability (Olaparib + OSI-027; first compound 0.253 µM) was 0.64 and the relative viability (Olaparib + OSI-027; first compound 2.53 µM) was 0.647. It also gave a relative viability (Olaparib + OSI-027; first compound 8 µM) of 0.638.
NCI-H1792 showed a relative viability (Carfilzomib + Pemetrexed; first compound 0.003162 µM) of 0.937, a relative viability (Carfilzomib + Pemetrexed; first compound 0.01 µM) of 0.773 and a relative viability (Carfilzomib + Pemetrexed; first compound 0.03162 µM) of 0.49. The relative viability (Carfilzomib + Pemetrexed; first compound 0.1 µM) was 0.0813, the relative viability (Carfilzomib + Olaparib; first compound 0.003162 µM) was 0.41 and the relative viability (Carfilzomib + Olaparib; first compound 0.01 µM) was 0.633. The relative viability (Carfilzomib + Olaparib; first compound 0.03162 µM) was 0.393, the relative viability (Carfilzomib + Olaparib; first compound 0.1 µM) was 0.0411 and the relative viability (Crizotinib + Phenformin; first compound 0.03162 µM) was 0.357. For the same cell line, the relative viability (Crizotinib + Phenformin; first compound 0.1 µM) was 0.314, the relative viability (Crizotinib + Phenformin; first compound 1 µM) was 0.328 and the relative viability (Olaparib + OSI-027; first compound 0.08 µM) was 0.759. For the same cell line, the relative viability (Olaparib + OSI-027; first compound 0.253 µM) was 0.652, the relative viability (Olaparib + OSI-027; first compound 2.53 µM) was 0.712 and the relative viability (Olaparib + OSI-027; first compound 8 µM) was 0.669.
With NCI-H1915 the relative viability (Carfilzomib + Pemetrexed; first compound 0.001 µM) was 0.559, the relative viability (Carfilzomib + Pemetrexed; first compound 0.003162 µM) was 0.516 and the relative viability (Carfilzomib + Pemetrexed; first compound 0.01 µM) was 0.578. For the same cell line, the relative viability (Carfilzomib + Pemetrexed; first compound 0.03162 µM) was 0.59, the relative viability (Carfilzomib + Pemetrexed; first compound 0.1 µM) was 0.0792 and the relative viability (Carfilzomib + Olaparib; first compound 0.001 µM) was 0.292. For the same cell line, the relative viability (Carfilzomib + Olaparib; first compound 0.003162 µM) was 0.265, the relative viability (Carfilzomib + Olaparib; first compound 0.01 µM) was 0.248 and the relative viability (Carfilzomib + Olaparib; first compound 0.03162 µM) was 0.247. The relative viability (Carfilzomib + Olaparib; first compound 0.1 µM) was 0.058, the relative viability (Crizotinib + Phenformin; first compound 0.01 µM) was 0.382 and the relative viability (Crizotinib + Phenformin; first compound 0.03162 µM) was 0.377. The relative viability (Crizotinib + Phenformin; first compound 0.1 µM) was 0.367, the relative viability (Crizotinib + Phenformin; first compound 1 µM) was 0.359 and the relative viability (Olaparib + OSI-027; first compound 0.08 µM) was 0.612. The relative viability (Olaparib + OSI-027; first compound 0.253 µM) was 0.572, the relative viability (Olaparib + OSI-027; first compound 2.53 µM) was 0.533 and the relative viability (Olaparib + OSI-027; first compound 8 µM) was 0.374.
Work on NCI-H1944 yielded a relative viability (Carfilzomib + Pemetrexed; first compound 0.001 µM) of 0.615, a relative viability (Carfilzomib + Pemetrexed; first compound 0.003162 µM) of 0.664 and a relative viability (Carfilzomib + Pemetrexed; first compound 0.01 µM) of 0.628. The relative viability (Carfilzomib + Pemetrexed; first compound 0.03162 µM) was 0.563, the relative viability (Carfilzomib + Pemetrexed; first compound 0.1 µM) was 0.242 and the relative viability (Carfilzomib + Olaparib; first compound 0.001 µM) was 0.438. It also gave a relative viability (Carfilzomib + Olaparib; first compound 0.003162 µM) of 0.513, a relative viability (Carfilzomib + Olaparib; first compound 0.01 µM) of 0.441 and a relative viability (Carfilzomib + Olaparib; first compound 0.03162 µM) of 0.374. For the same cell line, the relative viability (Carfilzomib + Olaparib; first compound 0.1 µM) was 0.187, the relative viability (Crizotinib + Phenformin; first compound 0.01 µM) was 0.19 and the relative viability (Crizotinib + Phenformin; first compound 0.03162 µM) was 0.194. It also gave a relative viability (Crizotinib + Phenformin; first compound 0.1 µM) of 0.189, a relative viability (Crizotinib + Phenformin; first compound 0.3162 µM) of 0.195 and a relative viability (Crizotinib + Phenformin; first compound 1 µM) of 0.198. It also gave a relative viability (Olaparib + OSI-027; first compound 0.08 µM) of 0.404, a relative viability (Olaparib + OSI-027; first compound 0.253 µM) of 0.362 and a relative viability (Olaparib + OSI-027; first compound 2.53 µM) of 0.369. The relative viability (Olaparib + OSI-027; first compound 8 µM) was 0.374.
In the case of NCI-H1975, the relative viability (Carfilzomib + Pemetrexed; first compound 0.001 µM) was 0.281, the relative viability (Carfilzomib + Pemetrexed; first compound 0.003162 µM) was 0.31 and the relative viability (Carfilzomib + Pemetrexed; first compound 0.01 µM) was 0.224. It also gave a relative viability (Carfilzomib + Pemetrexed; first compound 0.03162 µM) of 0.123, a relative viability (Carfilzomib + Pemetrexed; first compound 0.1 µM) of 0.115 and a relative viability (Carfilzomib + Olaparib; first compound 0.001 µM) of 0.828. It also gave a relative viability (Carfilzomib + Olaparib; first compound 0.003162 µM) of 0.825, a relative viability (Carfilzomib + Olaparib; first compound 0.01 µM) of 0.393 and a relative viability (Carfilzomib + Olaparib; first compound 0.03162 µM) of 0.123. It also gave a relative viability (Carfilzomib + Olaparib; first compound 0.1 µM) of 0.118, a relative viability (Crizotinib + Phenformin; first compound 0.01 µM) of 0.376 and a relative viability (Crizotinib + Phenformin; first compound 0.03162 µM) of 0.419. It also gave a relative viability (Crizotinib + Phenformin; first compound 0.1 µM) of 0.4, a relative viability (Crizotinib + Phenformin; first compound 0.3162 µM) of 0.41 and a relative viability (Crizotinib + Phenformin; first compound 1 µM) of 0.399. For the same cell line, the relative viability (Olaparib + OSI-027; first compound 0.08 µM) was 0.761, the relative viability (Olaparib + OSI-027; first compound 0.253 µM) was 0.703 and the relative viability (Olaparib + OSI-027; first compound 2.53 µM) was 0.848. For the same cell line, the relative viability (Olaparib + OSI-027; first compound 8 µM) was 0.758.
NCI-H1993 showed a relative viability (Carfilzomib + Pemetrexed; first compound 0.001 µM) of 0.593, a relative viability (Carfilzomib + Pemetrexed; first compound 0.003162 µM) of 0.502 and a relative viability (Carfilzomib + Pemetrexed; first compound 0.01 µM) of 0.574. For the same cell line, the relative viability (Carfilzomib + Pemetrexed; first compound 0.03162 µM) was 0.518, the relative viability (Carfilzomib + Pemetrexed; first compound 0.1 µM) was 0.351 and the relative viability (Carfilzomib + Olaparib; first compound 0.001 µM) was 0.984. For the same cell line, the relative viability (Carfilzomib + Olaparib; first compound 0.003162 µM) was 1.11, the relative viability (Carfilzomib + Olaparib; first compound 0.01 µM) was 1.1 and the relative viability (Carfilzomib + Olaparib; first compound 0.03162 µM) was 1.04. The relative viability (Carfilzomib + Olaparib; first compound 0.1 µM) was 0.407, the relative viability (Crizotinib + Phenformin; first compound 0.01 µM) was 0.493 and the relative viability (Crizotinib + Phenformin; first compound 0.03162 µM) was 0.51. For the same cell line, the relative viability (Crizotinib + Phenformin; first compound 0.1 µM) was 0.534, the relative viability (Crizotinib + Phenformin; first compound 0.3162 µM) was 0.507 and the relative viability (Crizotinib + Phenformin; first compound 1 µM) was 0.509. For the same cell line, the relative viability (Olaparib + OSI-027; first compound 0.08 µM) was 0.585, the relative viability (Olaparib + OSI-027; first compound 0.253 µM) was 0.502 and the relative viability (Olaparib + OSI-027; first compound 2.53 µM) was 0.389. The relative viability (Olaparib + OSI-027; first compound 8 µM) was 0.527.
